In brackets after ≈: the same amount, converted by molar mass. Where a name gives a salt, the structure may show the parent alone.
Tests used:
A. baumannii (ARC3495) = experiment: MIC against A. baumannii; conditions: Acinetobacter baumannii, read-out: A. baumannii MIC (ARC3495) (mg/L)
P. aeruginosa PBP1a = P. aeruginosa PBP1a (Pseudomonas aeruginosa, UniProt Q07806); assay type: biochemical; conditions: P. aeruginosa PBP1a 60 nM, BOCILLIN FL 30 nM, pH 7.0
P. aeruginosa PBP2 = target: T1, P. aeruginosa PBP2 (Pseudomonas aeruginosa, UniProt Q9X6V3); assay type: biochemical; conditions: P. aeruginosa PBP2 300 nM, BOCILLIN FL 30 nM, pH 6.2
T1 sequence (Q9X6V3 1-646): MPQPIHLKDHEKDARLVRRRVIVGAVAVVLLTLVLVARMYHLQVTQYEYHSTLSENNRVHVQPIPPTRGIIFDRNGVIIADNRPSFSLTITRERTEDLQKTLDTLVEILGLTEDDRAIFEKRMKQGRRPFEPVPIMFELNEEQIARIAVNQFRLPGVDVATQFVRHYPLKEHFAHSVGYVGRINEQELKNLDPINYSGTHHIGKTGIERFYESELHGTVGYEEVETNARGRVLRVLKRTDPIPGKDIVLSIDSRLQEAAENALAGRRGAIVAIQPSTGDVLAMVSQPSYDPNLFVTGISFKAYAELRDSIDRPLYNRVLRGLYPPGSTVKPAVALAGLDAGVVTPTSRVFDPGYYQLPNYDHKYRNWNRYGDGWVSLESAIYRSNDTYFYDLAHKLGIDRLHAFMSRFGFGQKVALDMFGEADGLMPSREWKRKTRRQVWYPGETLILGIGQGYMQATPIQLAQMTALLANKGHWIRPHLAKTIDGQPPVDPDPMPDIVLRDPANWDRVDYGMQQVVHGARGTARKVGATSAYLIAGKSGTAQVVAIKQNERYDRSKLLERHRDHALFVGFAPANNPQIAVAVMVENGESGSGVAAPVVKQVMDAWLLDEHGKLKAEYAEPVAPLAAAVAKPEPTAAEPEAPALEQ

P. aeruginosa WT (PAO1) = experiment: MIC, CLSI broth microdilution, P. aeruginosa; assay type: cell-based; conditions: Pseudomonas aeruginosa, PAO1; CLSI broth microdilution; read-out: P. aeruginosa WT (PAO1) MIC
E. coli (ATCC25922) = experiment: MIC against E. coli; conditions: Escherichia coli, ATCC25922, read-out: E. coli MIC (ATCC25922) (mg/L)
[1] = tested on: K. pneumoniae (ATCC700603); experiment: MIC against K. pneumoniae; conditions: Klebsiella pneumoniae, ATCC700603, read-out: K. pneumoniae MIC (ATCC700603)
P. aeruginosa PBP3 = P. aeruginosa PBP3 (Pseudomonas aeruginosa, UniProt G3XD46); assay type: biochemical; conditions: P. aeruginosa PBP3 60 nM, BOCILLIN FL 30 nM, pH 7.0
Chain of P. aeruginosa PBP3 (G3XD46 whole entry): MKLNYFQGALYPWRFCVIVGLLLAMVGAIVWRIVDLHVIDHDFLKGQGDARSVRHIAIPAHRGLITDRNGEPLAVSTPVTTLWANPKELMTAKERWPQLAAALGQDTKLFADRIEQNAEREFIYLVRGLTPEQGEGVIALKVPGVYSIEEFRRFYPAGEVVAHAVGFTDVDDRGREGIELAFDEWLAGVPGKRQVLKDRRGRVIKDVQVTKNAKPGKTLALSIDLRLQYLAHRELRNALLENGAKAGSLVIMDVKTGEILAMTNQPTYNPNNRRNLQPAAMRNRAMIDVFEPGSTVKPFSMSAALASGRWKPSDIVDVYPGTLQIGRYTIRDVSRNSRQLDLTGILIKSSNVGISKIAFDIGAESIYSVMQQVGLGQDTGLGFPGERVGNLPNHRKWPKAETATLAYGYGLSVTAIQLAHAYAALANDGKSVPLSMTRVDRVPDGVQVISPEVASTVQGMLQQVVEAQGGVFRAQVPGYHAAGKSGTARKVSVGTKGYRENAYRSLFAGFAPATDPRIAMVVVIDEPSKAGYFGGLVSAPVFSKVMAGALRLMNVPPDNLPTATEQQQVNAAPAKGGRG

Chain of P. aeruginosa PBP1a (Q07806 whole entry): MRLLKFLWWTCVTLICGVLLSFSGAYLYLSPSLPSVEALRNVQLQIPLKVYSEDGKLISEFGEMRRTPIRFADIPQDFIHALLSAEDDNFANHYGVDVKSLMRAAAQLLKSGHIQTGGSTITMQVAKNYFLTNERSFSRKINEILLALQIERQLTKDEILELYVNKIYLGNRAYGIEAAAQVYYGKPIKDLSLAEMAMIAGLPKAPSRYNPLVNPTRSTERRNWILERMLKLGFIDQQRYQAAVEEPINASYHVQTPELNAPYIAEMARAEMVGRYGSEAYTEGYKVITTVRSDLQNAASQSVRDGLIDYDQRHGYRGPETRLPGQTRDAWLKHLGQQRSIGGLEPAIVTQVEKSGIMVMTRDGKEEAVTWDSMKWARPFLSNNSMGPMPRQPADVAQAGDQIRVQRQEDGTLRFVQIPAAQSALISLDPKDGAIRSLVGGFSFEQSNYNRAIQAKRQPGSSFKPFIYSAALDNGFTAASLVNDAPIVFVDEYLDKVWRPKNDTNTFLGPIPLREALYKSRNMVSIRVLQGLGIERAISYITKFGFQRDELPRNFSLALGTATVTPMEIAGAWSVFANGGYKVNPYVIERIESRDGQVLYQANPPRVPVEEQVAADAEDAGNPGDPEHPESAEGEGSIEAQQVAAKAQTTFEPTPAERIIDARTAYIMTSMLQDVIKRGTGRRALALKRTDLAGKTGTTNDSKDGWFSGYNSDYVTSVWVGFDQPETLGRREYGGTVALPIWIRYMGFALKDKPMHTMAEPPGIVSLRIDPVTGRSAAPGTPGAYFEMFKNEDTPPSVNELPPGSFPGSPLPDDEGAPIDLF

| MIC (A. baumannii (ARC3495)) | MIC (P. aeruginosa WT (PAO1)) | MIC (E. coli (ATCC25922)) | MIC [1] | Compound | PBP1a acylation rate, k(on) (M^−1 · s^−1) (P. aeruginosa PBP1a) | PBP2 acylation rate, k(on) (M^−1 · s^−1) (P. aeruginosa PBP2) | PBP3 acylation rate, k(on) (M^−1 · s^−1) (P. aeruginosa PBP3) |
| --- | --- | --- | --- | --- | --- | --- | --- |
| > 16 mg/L | > 16 µg/mL | < 8 mg/L | > 16 µg/mL | CN/C(=N\O)[C@H]1c2c(cnn2C)[C@H]2CN1C(=O)N2OS(=O)(=O)O (stereo in doubt) [Example 41, Sodium (4S*,8R*)-8-((Z)—N′-hydroxy-N-methylcarbamimidoyl)-1-methyl-6-oxo-4,8-dihydro-1H-4,7-methanopyrazolo[3,4-e][1,3]diazepin-5(6H)-yl hydrogen sulfate] | * (* represents a k(on) < 100 M^−1 · s^−1) | * (* represents a k(on) < 100 M^−1 · s^−1) | ** (** represents a k(on) of 100 to 10,000 M^−1 · s^−1) |
| > 16 mg/L | > 16 µg/mL | < 8 mg/L | > 16 µg/mL | Cn1ncc2c1[C@@H](/C(=N/O)NCCCCN)N1C[C@@H]2N(OS(=O)(=O)O)C1=O (racemic) [Example 8] | * (* represents a k(on) < 100 M^−1 · s^−1) | * (* represents a k(on) < 100 M^−1 · s^−1) | * (* represents a k(on) < 100 M^−1 · s^−1) |
| < 8 mg/L | < 8 µg/mL | < 8 mg/L | < 8 µg/mL | CN/C(=N\O)[C@@H]1c2c(cnn2CCN)[C@@H]2CN1C(=O)N2OS(=O)(=O)O [Example 47, (4R,8S)-1-(2-aminoethyl)-8-((Z)—N′-hydroxy-N-methylcarbamimidoyl)-6-oxo-4,8-dihydro-1H-4,7-methanopyrazolo[3,4-e][1,3]diazepin-5(6H)-yl hydrogen sulfate] | ** (** represents a k(on) of 100 to 10,000 M^−1 · s^−1) | * (* represents a k(on) < 100 M^−1 · s^−1) | *** (*** represents a k(on) > 10,000 M^−1 · s^−1) |
| > 16 mg/L | 8 to 16 µg/mL | 8 to 16 mg/L | > 16 µg/mL | C/C(=N\O)[C@@H]1c2c(cnn2C)[C@@H]2CN1C(=O)N2OS(=O)(=O)O [Example 71, (4R,8S)-8-((E)-1-(hydroxyimino)ethyl)-1-methyl-6-oxo-4,8-dihydro-1H-4,7-methanopyrazolo[3,4-e][1,3]diazepin-5(6H)-yl hydrogen sulfate] | * (* represents a k(on) < 100 M^−1 · s^−1) | * (* represents a k(on) < 100 M^−1 · s^−1) | ** (** represents a k(on) of 100 to 10,000 M^−1 · s^−1) |
| > 16 mg/L | > 16 µg/mL | < 8 mg/L | > 16 µg/mL | Cn1ncc2c1[C@@H](/C(C#N)=N/O)N1C[C@@H]2N(OS(=O)(=O)O)C1=O (racemic) [Example 13] | * (* represents a k(on) < 100 M^−1 · s^−1) | * (* represents a k(on) < 100 M^−1 · s^−1) | ** (** represents a k(on) of 100 to 10,000 M^−1 · s^−1) |
| > 16 mg/L | > 16 µg/mL | < 8 mg/L | > 16 µg/mL | Cn1ncc2c1[C@@H](/C(=N/O)NCc1nc(N)cs1)N1C[C@@H]2N(OS(=O)(=O)O)C1=O [Example 51, (4R,8S)-8-((Z)—N-((4-aminothiazol-2-yl)methyl)-N′-hydroxycarbamimidoyl)-1-methyl-6-oxo-4,8-dihydro-1H-4,7-methanopyrazolo[3,4-e][1,3]diazepin-5(6H)-yl hydrogen sulfate] | ** (** represents a k(on) of 100 to 10,000 M^−1 · s^−1) | * (* represents a k(on) < 100 M^−1 · s^−1) | ** (** represents a k(on) of 100 to 10,000 M^−1 · s^−1) |

Continued, compound first:

| Compound | MIC (A. baumannii (ARC3495)) | MIC (P. aeruginosa WT (PAO1)) | MIC (E. coli (ATCC25922)) | MIC [1] | PBP1a acylation rate, k(on) (M^−1 · s^−1) (P. aeruginosa PBP1a) | PBP2 acylation rate, k(on) (M^−1 · s^−1) (P. aeruginosa PBP2) | PBP3 acylation rate, k(on) (M^−1 · s^−1) (P. aeruginosa PBP3) |
| --- | --- | --- | --- | --- | --- | --- | --- |
| Cn1ncc2c1[C@@H](/C(CNS(N)(=O)=O)=N/O)N1C[C@@H]2N(OS(=O)(=O)O)C1=O [Example 56, (4R,8S)-8-((E)-1-(hydroxyamino)-2-(sulfamoyl)amino)ethyl)-1-methyl-6-oxo-4,8-dihydro-1H-4,7-methanopyrazolo[3,4-e][1,3]diazepin-5(6H)-yl hydrogen sulfate] | > 16 mg/L | > 16 µg/mL | < 8 mg/L | > 16 µg/mL | ** (** represents a k(on) of 100 to 10,000 M^−1 · s^−1) | * (* represents a k(on) < 100 M^−1 · s^−1) | ** (** represents a k(on) of 100 to 10,000 M^−1 · s^−1) |
| Cn1ncc2c1[C@@H](C1=NOC(CO)C1)N1C[C@@H]2N(OS(=O)(=O)O)C1=O (stereo partly drawn) [Example 38, (4R,8S)-8-(5-(hydroxymethyl)-4,5-dihydroisoxazol-3-yl)-1-methyl-6-oxo-4,8-dihydro-1H-4,7-methanopyrazolo[3,4-e][1,3]diazepin-5(6H)-yl hydrogen sulfate] | > 16 mg/L | > 16 µg/mL | 8 to 16 mg/L | > 16 µg/mL | * (* represents a k(on) < 100 M^−1 · s^−1) | * (* represents a k(on) < 100 M^−1 · s^−1) | * (* represents a k(on) < 100 M^−1 · s^−1) |
| CC(=O)O/N=C(\N)[C@@H]1c2c(cnn2C)[C@@H]2CN1C(=O)N2OS(=O)(=O)O [Example 70, Pyridium (4R,8S)-8-((Z)—N′-acetoxycarbamimidoyl)-1-methyl-6-oxo-4,8-dihydro-1H-4,7-methanopyrazolo[3,4-e][1,3]diazepin-5(6H)-yl hydrogen sulfate] | > 16 mg/L | > 16 µg/mL | 8 to 16 mg/L | > 16 µg/mL | * (* represents a k(on) < 100 M^−1 · s^−1) | * (* represents a k(on) < 100 M^−1 · s^−1) | ** (** represents a k(on) of 100 to 10,000 M^−1 · s^−1) |
| CN(O)/C(=N\O)[C@@H]1c2c(cnn2C)[C@@H]2CN1C(=O)N2OS(=O)(=O)O (racemic) [Example 9] | 8 to 16 mg/L (≈ 22.1 to 44.2 µM) | < 8 µg/mL | < 8 mg/L | 8 to 16 µg/mL (≈ 22.1 to 44.2 µM) | ** (** represents a k(on) of 100 to 10,000 M^−1 · s^−1) | * (* represents a k(on) < 100 M^−1 · s^−1) | ** (** represents a k(on) of 100 to 10,000 M^−1 · s^−1) |
| CN/C(=N\OC(N)=O)[C@@H]1c2c(cnn2C)[C@@H]2CN1C(=O)N2OS(=O)(=O)O (racemic) [Example 14, pyridium (4R,8S)-8-((Z)—N′-(carbamoyloxy)-N-methylcarbamimidoyl)-1-methyl-6-oxo-4,8-dihydro-1H-4,7-methanopyrazolo[3,4-e][1,3]diazepin-5(6H)-yl hydrogen sulfate] | 8 to 16 mg/L | < 8 µg/mL | < 8 mg/L | < 8 µg/mL | ** (** represents a k(on) of 100 to 10,000 M^−1 · s^−1) | * (* represents a k(on) < 100 M^−1 · s^−1) | *** (*** represents a k(on) > 10,000 M^−1 · s^−1) |
| Cn1ncc2c1[C@@H](C1=NOC(Cc3ccccc3)C1)N1C[C@@H]2N(OS(=O)(=O)O)C1=O (mixture of isomers) [Example 36] | > 16 mg/L | > 16 µg/mL | < 8 mg/L | > 16 µg/mL | ** (** represents a k(on) of 100 to 10,000 M^−1 · s^−1) | * (* represents a k(on) < 100 M^−1 · s^−1) | ** (** represents a k(on) of 100 to 10,000 M^−1 · s^−1) |

— patent publication US11046694B2, “Compounds and methods for treating bacterial infections” (Entasis Therapeutics, Inc., priority 2018, dated 2021)
